Tests used:
[1] = tested on: human DNA topoisomerase IIα; experiment: Fluorescence-based DNA cleavage assay for human DNA topoisomerase IIα (T5 exonuclease digestion, SYBR Green staining); format: biochemical; settings: 50 μM etoposide, […] human TopoIIα, FIG. 8C
Experimental: (§1) FIGS. 8A-8C. […] Fluorescence intensity was measured using a Biotek microplate reader with excitation wavelength of 497 nm and emission wavelength of 525 nm.

[2] = tested on: human DNA topoisomerase IIα; experiment: Agarose gel-based human DNA topoisomerase IIα mediated DNA cleavage assay; format: biochemical; settings: 50 μM etoposide, increasing topoisomerase IIα, FIG. 8A
Experimental: as §1
DNA Gyrase and Human DNA Topoisomerase IIα Mediated DNA Cleavage Assay.
250 ng of relaxed plasmid pBR322 and 20 nM of E. coli DNA gyrase or human DNA topoisomerase IIα were mixed and incubated in 1×gyrase-mediated DNA cleavage buffer (20 mM Tris-HCl pH 8, 50 mM KAc, 10 mM MgCl2, 2 mM DTT, 1 mM ATP, 0.1 mg/mL BSA) at 37° C. for 15 minutes in the presence of an inhibitor or compound. After the incubation, 0.2% SDS and 0.1 mg/ml proteinase K were added to the reaction mixtures to trap the topoisomerase-inhibitor-DNA complex and digest the topoisomerase, respectively, by incubating for an additional 30 min at 37° C. DNA samples were analyzed in 1% agarose gel containing […] ethidium bromide in 1′TAE buffer and photographed under UV light. […] Etoposide was used as a positive control for human DNA topoisomerase IIα-mediated DNA cleavage assays.

COc1cc([C@@H]2c3cc4c(cc3[C@@H](O[C@@H]3O[C@@H]5CO[C@@H](C)O[C@H]5[C@H](O)[C@H]3O)[C@H]3COC(=O)[C@H]23)OCO4)cc(OC)c1O [etoposide]
fluorescence difference between presence and absence of compound (in words) [1]: significant fluorescence difference
linear and nicked plasmid DNA products (in words) [2]: progressive increase in the linear and nicked plasmid DNA products

Source: US12234504B1 (priority 2023, dated 2025)
